ChEMBL document CHEMBL4507277

Tests used:
[1] = molecular target: Tyrosine-protein kinase Blk (Homo sapiens) (UniProt P51451); conditions: Compound concentration 1000.0 nM
[2] = test system: Epidermal growth factor receptor (Homo sapiens), P00533 [G719C]; conditions: Compound concentration 1000.0 nM
[3] = molecular target: T1, 5-hydroxytryptamine receptor 3A (Homo sapiens) (UniProt P46098); conditions: Compound concentration 10.0 uM
T1 sequence (whole entry): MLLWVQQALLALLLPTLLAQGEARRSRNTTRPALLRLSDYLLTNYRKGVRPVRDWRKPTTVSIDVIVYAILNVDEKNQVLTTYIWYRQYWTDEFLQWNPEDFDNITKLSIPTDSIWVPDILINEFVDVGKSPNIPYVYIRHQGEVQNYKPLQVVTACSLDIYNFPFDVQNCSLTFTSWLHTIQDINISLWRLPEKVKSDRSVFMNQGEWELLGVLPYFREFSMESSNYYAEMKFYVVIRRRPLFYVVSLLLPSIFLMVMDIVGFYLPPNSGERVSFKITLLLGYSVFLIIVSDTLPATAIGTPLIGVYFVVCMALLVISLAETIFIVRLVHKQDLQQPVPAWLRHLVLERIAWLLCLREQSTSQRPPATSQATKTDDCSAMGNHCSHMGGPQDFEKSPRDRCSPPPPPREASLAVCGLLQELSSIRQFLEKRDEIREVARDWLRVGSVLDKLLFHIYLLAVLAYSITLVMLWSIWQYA

[4] = molecular target: Serine/threonine-protein kinase 10 (Homo sapiens) (UniProt O94804); conditions: Compound concentration 1000.0 nM
[5] = molecular target: LIM domain kinase 1 (Homo sapiens) (UniProt P53667); conditions: Compound concentration 1000.0 nM
[6] = molecular target: Mast/stem cell growth factor receptor Kit (Homo sapiens) (UniProt P10721); conditions: Compound concentration 1000.0 nM
[7] = molecular target: Dual specificity mitogen-activated protein kinase kinase 3 (Homo sapiens) (UniProt P46734); conditions: Compound concentration 1000.0 nM
[8] = molecular target: Ephrin type-A receptor 6 (Homo sapiens) (UniProt Q9UF33); conditions: Compound concentration 1000.0 nM
Sequence of Ephrin type-A receptor 6 (Homo sapiens) (Q9UF33 whole entry): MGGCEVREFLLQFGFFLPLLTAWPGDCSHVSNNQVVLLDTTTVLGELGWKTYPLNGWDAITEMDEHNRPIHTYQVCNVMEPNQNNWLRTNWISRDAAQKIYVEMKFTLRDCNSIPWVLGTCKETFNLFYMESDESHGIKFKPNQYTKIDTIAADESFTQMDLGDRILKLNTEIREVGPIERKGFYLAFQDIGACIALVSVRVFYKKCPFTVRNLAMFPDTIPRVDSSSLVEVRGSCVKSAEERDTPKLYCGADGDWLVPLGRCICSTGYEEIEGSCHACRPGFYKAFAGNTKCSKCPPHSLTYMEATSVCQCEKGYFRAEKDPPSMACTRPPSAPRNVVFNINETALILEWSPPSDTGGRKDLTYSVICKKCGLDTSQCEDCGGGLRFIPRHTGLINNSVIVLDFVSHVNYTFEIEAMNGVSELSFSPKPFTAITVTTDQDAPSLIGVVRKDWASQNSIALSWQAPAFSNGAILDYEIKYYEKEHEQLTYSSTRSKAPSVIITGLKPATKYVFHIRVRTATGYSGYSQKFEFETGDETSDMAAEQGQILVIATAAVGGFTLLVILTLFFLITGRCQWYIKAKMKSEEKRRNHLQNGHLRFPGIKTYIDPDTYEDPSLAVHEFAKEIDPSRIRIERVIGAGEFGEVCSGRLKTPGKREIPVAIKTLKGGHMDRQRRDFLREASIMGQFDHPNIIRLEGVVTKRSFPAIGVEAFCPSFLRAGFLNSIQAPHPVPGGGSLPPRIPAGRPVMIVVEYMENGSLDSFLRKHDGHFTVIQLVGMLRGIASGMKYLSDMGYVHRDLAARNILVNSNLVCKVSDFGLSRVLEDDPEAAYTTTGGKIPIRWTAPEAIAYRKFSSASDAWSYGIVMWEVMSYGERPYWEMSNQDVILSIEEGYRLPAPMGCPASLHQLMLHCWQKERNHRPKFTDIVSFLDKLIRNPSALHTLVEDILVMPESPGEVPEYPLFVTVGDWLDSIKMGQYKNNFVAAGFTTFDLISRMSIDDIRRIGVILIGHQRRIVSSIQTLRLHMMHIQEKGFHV

[9] = molecular target: Casein kinase II subunit alpha' (Homo sapiens) (UniProt P19784); conditions: Compound concentration 1000.0 nM
[10] = molecular target: Myosin light chain kinase, smooth muscle (Homo sapiens) (UniProt Q15746); conditions: Compound concentration 1000.0 nM
[11] = molecular target: Serine/threonine-protein kinase 17A (Homo sapiens) (UniProt Q9UEE5); conditions: Compound concentration 1000.0 nM
[12] = molecular target: Serine/threonine-protein kinase PAK 5 (Homo sapiens) (UniProt Q9P286); conditions: Compound concentration 1000.0 nM
[13] = molecular target: Cyclin-dependent kinase-like 1 (Homo sapiens) (UniProt Q00532); conditions: Compound concentration 1000.0 nM
[14] = molecular target: Mitogen-activated protein kinase 15 (Homo sapiens) (UniProt Q8TD08); conditions: Compound concentration 1000.0 nM
[15] = molecular target: Serine/threonine-protein kinase TBK1 (Homo sapiens) (UniProt Q9UHD2); conditions: Compound concentration 1000.0 nM
[16] = molecular target: Tyrosine-protein kinase FRK (Homo sapiens) (UniProt P42685); conditions: Compound concentration 1000.0 nM
[17] = test system: Receptor-type tyrosine-protein kinase FLT3 (Homo sapiens), P36888 [K663Q]; conditions: Compound concentration 1000.0 nM
[18] = molecular target: Cyclin-dependent kinase 2 homolog (Plasmodium falciparum (isolate 3D7)) (UniProt P61075); conditions: Compound concentration 1000.0 nM
[19] = molecular target: Serine/threonine-protein kinase WNK2 (Homo sapiens) (UniProt Q9Y3S1); conditions: Compound concentration 1000.0 nM
[20] = molecular target: 5-hydroxytryptamine receptor 6 (Homo sapiens) (UniProt P50406); conditions: Compound concentration 10.0 uM
[21] = molecular target: Mitogen-activated protein kinase 9 (Homo sapiens) (UniProt P45984); conditions: Compound concentration 1000.0 nM
Sequence of Mitogen-activated protein kinase 9 (Homo sapiens) (P45984 whole entry, looked up): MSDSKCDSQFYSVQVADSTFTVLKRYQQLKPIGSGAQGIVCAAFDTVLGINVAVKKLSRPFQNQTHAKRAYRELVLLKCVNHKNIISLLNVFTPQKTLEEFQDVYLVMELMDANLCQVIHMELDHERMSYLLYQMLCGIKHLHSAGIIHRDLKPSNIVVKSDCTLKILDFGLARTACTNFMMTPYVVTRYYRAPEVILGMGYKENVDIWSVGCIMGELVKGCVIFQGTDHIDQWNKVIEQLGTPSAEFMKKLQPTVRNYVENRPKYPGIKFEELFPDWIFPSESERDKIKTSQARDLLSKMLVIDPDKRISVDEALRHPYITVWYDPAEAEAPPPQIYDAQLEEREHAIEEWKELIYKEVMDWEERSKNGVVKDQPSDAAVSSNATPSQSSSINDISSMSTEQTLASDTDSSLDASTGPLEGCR

[22] = molecular target: Serine/threonine-protein kinase MRCK alpha (Homo sapiens) (UniProt Q5VT25); conditions: Compound concentration 1000.0 nM
[23] = molecular target: Phosphorylase b kinase gamma catalytic chain, skeletal muscle/heart isoform (Homo sapiens) (UniProt Q16816); conditions: Compound concentration 1000.0 nM
[24] = test system: Epidermal growth factor receptor (Homo sapiens), P00533 [L858R]; conditions: Compound concentration 1000.0 nM
[25] = molecular target: Mitogen-activated protein kinase kinase kinase 6 (Homo sapiens) (UniProt O95382); conditions: Compound concentration 1000.0 nM
[26] = molecular target: Ribosomal protein S6 kinase alpha-1 (Homo sapiens) (UniProt Q15418); conditions: Compound concentration 1000.0 nM
[27] = molecular target: Mitogen-activated protein kinase kinase kinase kinase 2 (Homo sapiens) (UniProt Q12851); conditions: Compound concentration 1000.0 nM
Sequence of Mitogen-activated protein kinase kinase kinase kinase 2 (Homo sapiens) (Q12851 whole entry): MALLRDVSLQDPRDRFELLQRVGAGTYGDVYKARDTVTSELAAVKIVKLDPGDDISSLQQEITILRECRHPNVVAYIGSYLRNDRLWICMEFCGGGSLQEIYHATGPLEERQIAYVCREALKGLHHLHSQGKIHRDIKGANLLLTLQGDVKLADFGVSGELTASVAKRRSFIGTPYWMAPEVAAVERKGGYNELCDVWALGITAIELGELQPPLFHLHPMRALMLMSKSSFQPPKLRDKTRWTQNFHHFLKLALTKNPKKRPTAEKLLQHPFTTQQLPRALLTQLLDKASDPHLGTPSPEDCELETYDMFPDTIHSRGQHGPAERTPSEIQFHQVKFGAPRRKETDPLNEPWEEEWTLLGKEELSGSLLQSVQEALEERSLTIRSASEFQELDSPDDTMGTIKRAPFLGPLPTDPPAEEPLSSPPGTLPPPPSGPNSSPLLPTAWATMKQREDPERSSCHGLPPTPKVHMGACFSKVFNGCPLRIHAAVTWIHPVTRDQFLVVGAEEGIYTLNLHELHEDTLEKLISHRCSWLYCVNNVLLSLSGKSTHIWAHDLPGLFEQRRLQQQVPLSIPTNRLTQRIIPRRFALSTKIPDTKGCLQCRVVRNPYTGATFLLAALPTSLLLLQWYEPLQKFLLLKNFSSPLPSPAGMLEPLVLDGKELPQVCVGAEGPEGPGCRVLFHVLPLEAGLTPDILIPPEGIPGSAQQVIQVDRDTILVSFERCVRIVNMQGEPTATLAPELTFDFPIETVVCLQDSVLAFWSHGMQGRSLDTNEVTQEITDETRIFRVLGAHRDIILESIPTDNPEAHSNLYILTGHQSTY

[28] = molecular target: Macrophage colony-stimulating factor 1 receptor (Homo sapiens) (UniProt P07333); conditions: Compound concentration 1000.0 nM
[29] = molecular target: Cyclin-dependent kinase 4 (Homo sapiens) (UniProt P11802); conditions: Compound concentration 1000.0 nM
[30] = molecular target: Rho-associated protein kinase 1 (Homo sapiens) (UniProt Q13464); conditions: Compound concentration 1000.0 nM
[31] = test system: Mast/stem cell growth factor receptor Kit (Homo sapiens), P10721 [V559D,V654A]; conditions: Compound concentration 1000.0 nM
[32] = molecular target: Protein-tyrosine kinase 2-beta (Homo sapiens) (UniProt Q14289); conditions: Compound concentration 1000.0 nM
[33] = test system: Phosphatidylinositol 4,5-bisphosphate 3-kinase catalytic subunit alpha isoform (Homo sapiens), P42336 [E542K]; conditions: Compound concentration 1000.0 nM
Sequence of Phosphatidylinositol 4,5-bisphosphate 3-kinase catalytic subunit alpha isoform (Homo sapiens), P42336 [E542K] (P42336 whole entry E542K, canonical isoform): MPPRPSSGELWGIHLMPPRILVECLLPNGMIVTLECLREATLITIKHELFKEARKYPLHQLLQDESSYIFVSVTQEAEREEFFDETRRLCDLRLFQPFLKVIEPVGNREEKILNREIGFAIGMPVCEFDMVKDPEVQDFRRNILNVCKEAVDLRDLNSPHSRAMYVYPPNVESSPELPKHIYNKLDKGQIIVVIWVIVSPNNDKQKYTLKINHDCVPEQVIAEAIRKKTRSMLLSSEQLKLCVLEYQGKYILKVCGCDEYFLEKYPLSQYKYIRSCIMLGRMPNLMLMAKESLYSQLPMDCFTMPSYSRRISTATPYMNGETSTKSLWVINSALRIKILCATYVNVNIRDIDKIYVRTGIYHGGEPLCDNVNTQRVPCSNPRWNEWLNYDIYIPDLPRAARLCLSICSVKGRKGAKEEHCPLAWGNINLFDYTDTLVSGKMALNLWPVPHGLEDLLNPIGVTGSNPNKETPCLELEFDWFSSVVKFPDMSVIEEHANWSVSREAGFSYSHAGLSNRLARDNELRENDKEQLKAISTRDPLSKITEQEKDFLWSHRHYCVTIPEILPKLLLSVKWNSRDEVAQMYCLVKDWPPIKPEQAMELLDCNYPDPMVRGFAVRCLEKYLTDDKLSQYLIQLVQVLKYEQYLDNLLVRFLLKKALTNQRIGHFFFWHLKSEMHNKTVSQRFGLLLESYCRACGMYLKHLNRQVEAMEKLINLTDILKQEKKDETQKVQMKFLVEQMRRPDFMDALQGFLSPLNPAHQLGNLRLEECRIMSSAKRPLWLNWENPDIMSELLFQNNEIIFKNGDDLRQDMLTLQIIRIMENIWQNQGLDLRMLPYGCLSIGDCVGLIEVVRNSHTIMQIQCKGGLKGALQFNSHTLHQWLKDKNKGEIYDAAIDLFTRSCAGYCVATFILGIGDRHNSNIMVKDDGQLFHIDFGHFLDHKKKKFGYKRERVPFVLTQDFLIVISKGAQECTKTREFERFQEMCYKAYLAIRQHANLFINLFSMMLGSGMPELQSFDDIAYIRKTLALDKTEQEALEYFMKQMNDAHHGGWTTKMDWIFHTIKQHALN

[34] = molecular target: Mitogen-activated protein kinase 11 (Homo sapiens) (UniProt Q15759); conditions: Compound concentration 1000.0 nM
[35] = test system: Tyrosine-protein kinase ABL1 (Homo sapiens), P00519 [F317L]; conditions: Compound concentration 1000.0 nM
Sequence of Tyrosine-protein kinase ABL1 (Homo sapiens), P00519 [F317L] (P00519 whole entry F317L): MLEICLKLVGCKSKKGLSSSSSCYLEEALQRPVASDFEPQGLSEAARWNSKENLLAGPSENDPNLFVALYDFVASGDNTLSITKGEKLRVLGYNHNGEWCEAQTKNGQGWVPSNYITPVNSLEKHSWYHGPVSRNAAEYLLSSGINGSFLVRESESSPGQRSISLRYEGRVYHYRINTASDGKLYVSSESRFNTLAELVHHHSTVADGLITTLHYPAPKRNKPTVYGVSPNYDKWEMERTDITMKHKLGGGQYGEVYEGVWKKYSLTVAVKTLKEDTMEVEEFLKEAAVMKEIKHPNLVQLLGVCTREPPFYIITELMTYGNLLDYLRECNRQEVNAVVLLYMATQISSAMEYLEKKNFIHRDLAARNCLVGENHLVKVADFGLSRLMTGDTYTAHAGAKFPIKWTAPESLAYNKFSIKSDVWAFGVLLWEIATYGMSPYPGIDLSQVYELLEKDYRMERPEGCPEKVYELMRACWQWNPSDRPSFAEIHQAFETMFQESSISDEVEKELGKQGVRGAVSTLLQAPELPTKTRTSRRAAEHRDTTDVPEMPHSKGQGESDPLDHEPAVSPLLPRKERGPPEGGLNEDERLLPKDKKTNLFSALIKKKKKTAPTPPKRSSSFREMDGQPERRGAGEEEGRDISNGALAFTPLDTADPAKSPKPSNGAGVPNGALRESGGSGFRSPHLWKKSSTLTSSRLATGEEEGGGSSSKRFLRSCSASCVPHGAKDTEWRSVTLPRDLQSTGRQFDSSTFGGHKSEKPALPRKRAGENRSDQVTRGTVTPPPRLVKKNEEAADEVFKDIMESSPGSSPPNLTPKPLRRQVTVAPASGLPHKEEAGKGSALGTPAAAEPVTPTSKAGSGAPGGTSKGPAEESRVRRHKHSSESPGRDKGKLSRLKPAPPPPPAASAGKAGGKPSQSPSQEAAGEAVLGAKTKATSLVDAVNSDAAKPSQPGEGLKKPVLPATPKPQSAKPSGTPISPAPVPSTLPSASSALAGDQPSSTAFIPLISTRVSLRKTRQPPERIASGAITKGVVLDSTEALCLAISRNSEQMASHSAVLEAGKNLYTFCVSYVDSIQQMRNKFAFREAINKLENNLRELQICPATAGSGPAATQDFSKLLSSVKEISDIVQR

[36] = molecular target: NUAK family SNF1-like kinase 2 (Homo sapiens) (UniProt Q9H093); conditions: Compound concentration 1000.0 nM
[37] = molecular target: Bone morphogenetic protein receptor type-1B (Homo sapiens) (UniProt O00238); conditions: Compound concentration 1000.0 nM
[38] = molecular target: Serine/threonine-protein kinase 24 (Homo sapiens) (UniProt Q9Y6E0); conditions: Compound concentration 1000.0 nM
Sequence of Serine/threonine-protein kinase 24 (Homo sapiens) (Q9Y6E0 whole entry, looked up): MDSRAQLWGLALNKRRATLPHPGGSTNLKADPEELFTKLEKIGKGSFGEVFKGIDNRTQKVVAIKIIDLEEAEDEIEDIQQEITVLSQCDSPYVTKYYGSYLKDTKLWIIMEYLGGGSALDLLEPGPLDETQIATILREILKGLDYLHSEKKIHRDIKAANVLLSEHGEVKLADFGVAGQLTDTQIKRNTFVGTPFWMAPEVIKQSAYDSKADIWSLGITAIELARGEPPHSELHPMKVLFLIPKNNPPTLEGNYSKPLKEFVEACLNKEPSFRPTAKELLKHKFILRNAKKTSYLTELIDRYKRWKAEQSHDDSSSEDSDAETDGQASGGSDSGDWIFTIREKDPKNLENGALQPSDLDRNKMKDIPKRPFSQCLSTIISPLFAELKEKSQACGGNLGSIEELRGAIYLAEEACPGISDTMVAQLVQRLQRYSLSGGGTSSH

[39] = molecular target: Eukaryotic translation initiation factor 2-alpha kinase 1 (Homo sapiens) (UniProt Q9BQI3); conditions: Compound concentration 1000.0 nM

SMILES | residual activity [1] | residual activity [2] | inhibition [3] | residual activity [4] | residual activity [5] | residual activity [6] | residual activity [7] | residual activity [8] | residual activity [9] | residual activity [10] | residual activity [11] | residual activity [12] | residual activity [13] | residual activity [14] | residual activity [15] | residual activity [16] | residual activity [17] | residual activity [18] | residual activity [19] | inhibition [20] | also measured
CCS(=O)(=O)c1cc2cc(C[C@](O)(CC(C)(C)c3ccc(F)cc3C(N)=O)C(F)(F)F)[nH]c2cn1 | 100% | 100% | 32.2% | 100% | 100% | 89% | 100% | 100% | 92% | 96% | 80% | 100% | 81% | 100% | 93% | 80% | 100% | 100% | 100% | -3.78% | residual activity [21]: 100%; residual activity [22]: 89%; residual activity [23]: 66%; residual activity [24]: 100%; residual activity [25]: 55%; residual activity [26]: 87%; residual activity [27]: 96%; residual activity [28]: 100%; residual activity [29]: 100%; residual activity [30]: 84%; residual activity [31]: 79%; residual activity [32]: 100%; residual activity [33]: 66%; residual activity [34]: 100%; residual activity [35]: 90%; residual activity [36]: 95%; residual activity [37]: 100%; residual activity [38]: 86%; residual activity [39]: 100%
CCS(=O)(=O)c1cc2cc(C[C@@](O)(CC(C)(C)c3ccc(F)cc3C(N)=O)C(F)(F)F)[nH]c2cn1 | 100% | 100% | 21.1% | 100% | 100% | 100% | 67% | 100% | 83% | 93% | 80% | 100% | 78% | 100% | 87% | 100% | 83% | 100% | 46% | -3.13% | residual activity [21]: 84%; residual activity [22]: 100%; residual activity [23]: 67%; residual activity [24]: 90%; residual activity [25]: 100%; residual activity [26]: 0%; residual activity [27]: 80%; residual activity [28]: 94%; residual activity [29]: 81%; residual activity [30]: 69%; residual activity [31]: 81%; residual activity [32]: 100%; residual activity [33]: 74%; residual activity [34]: 100%; residual activity [35]: 61%; residual activity [36]: 84%; residual activity [37]: 55%; residual activity [38]: 0%; residual activity [39]: 80%
